# Measurements from patent US10561638B2, “Methods for treating dependence” (Biotie Therapies, Inc., priority 2007, dated 2020).
# “Also recorded” adds a separate entry of the source.
# Assays:
# [1] = Phase I single- and multiple-dose studies in healthy men; type: in vivo, human
# [2] = system: conscious, restrained SHRs; assay: Hemodynamic study in conscious, restrained SHRs; type: in vivo, spontaneously hypertensive rats
# Protocol: The in vivo hemodynamic activity of nepicastat was further assessed in conscious, restrained SHRs, a model having high sympathetic drive to cardiovascular tissues. Hemodynamic study in SHRs. Male SHRs (15-16 week old) were used in the study. The animals were lightly anesthetized with ether and the left femoral artery and vein were catheterized for measurement of blood pressure and drug administration, respectively. The animals were placed in restrainers and allowed to recover for 30-40 min. After obtaining baseline measurements, the animals were treated, orally, with either vehicle or the appropriate dose of nepicastat and hemodynamic parameters were continuously recorded for 4 h. The animals were then anesthetized with pentobarbital, placed on a heating pad (37° C.) and ventilated with a Harvard rodent ventilator. After administration of atropine (1 mg/kg, iv) and tubocurarine (1 mg/kg, iv), the animals were pithed through the orbit of the eye with a stainless steel rod. The […] rod was stimulated electrically with 1 ms pulses of 80V at different frequencies (0.15, 0.45, 1.5, 5, 15 Hz) to obtain frequency-pressor response curves. […] The animals were placed in restrainers and allowed to recover for 30-40 minutes. After obtaining baseline measurements, the animals were treated, orally, with either vehicle or the appropriate dose of nepicastat and hemodynamic parameters were continuously recorded for 4 h.
# [3] = system: SHRs; assay: 30-day radio-telemetry study in SHRs; details: for blood pressure: hydrochloride
# [4] = system: CD-1 (ICR) mice; assay: Locomotor activity in mice, intraperitoneal; type: in vivo; details: i.p.; nepicastat 3-100, SKF-102698 30 and 100, cocaine 30 mg/kg
# From the text: Adult male CD-1 (ICR) mice (30-40 g on study day) were housed in groups of eight under a normal light/dark cycle with lights on between 0900 hr and 2100 hr. Food and water were allowed ad libitum. All animals were naive to drug treatment and behavioral testing. Each animal was only used once.
# Locomotor activity was monitored in an automated 14 station activity monitoring system (San Diego Instrument Co.). Each station consisted of a clear perspex cage (25 cm×45 cm×20 cm; w×1×h) placed within a metal frame containing 3 photoemmitors and 3 photodetectors spaced equally along the length of the wall. The bottom of each cage was lightly covered in clean cedar bedding.
# The mice were placed in the testing room at least 1 hr prior to testing. The mice were placed individually into one of the activity cages and allowed to explore for 30 min. […] Following a 60 minute pre-treatment period, motor activity was monitored for 180 minutes. Activity counts and ambulations (defined as a break of 2 consecutive photobeams) for each animal were recorded every 30 minutes.
# A repeated measures two-way analysis of variance (ANOVA) was performed using the overall ranked data (nonparametric technique) to test for the overall effects of treatment, time interval and treatment by time interval interaction. […]
smiles,measurement,setting,value
"Cl.NCc1c[nH]c(=S)n1[C@H]1CCc2c(F)cc(F)cc2C1 [nepicastat, (S)-5-Aminomethyl-1-(5,7-difluoro-1,2,3,4-tetrahydronaphth-2-yl)-2,3-dihydro-2-thioxo-1H-imidazole hydrochloride]",subjects who developed a rash,[1]; 200 mg for 8 days or longer,Five of the 6 subjects
same,"tolerability, multiple-dose Phase I study","[1]; 5 and 40 mg, healthy men",generally well tolerated
same,"effect on mood, sleep, cognition",[1]; 5 or 40 mg,"no significant impairment of mood, sleep, or cognition"
same,"tolerability, single-dose Phase I studies","[1]; 5 to 800 mg, healthy men",generally well tolerated
same,cardiac adverse event in one subject,[1]; after 6 days of dosing with 200 mg,atrial arrhythmias and intermittent right bundle branch block
same,decrease in heart rate,[2]; 10 mg/kg,9.8%
same,maximal decrease in mean blood pressure,[2]; 10 mg/kg po,53±4 mmHg
same,reduction in mean blood pressure relative to vehicle control,[2]; 10 mg/kg po,33%
same,decrease in blood pressure 4 hours after dosing,"[2]; 10 mg/kg, SHRs",−46 mmHg
same,decrease in heart rate,[2]; 30 mg/kg,10.5%
same,effect on mean arterial pressure,"[2]; 0.3-30 mg/kg po, up to 4 h, hydrochloride",significant (p<0.05) lowering of mean arterial pressure; also recorded: significant antihypertensive effect
same,effect on heart rate,[2]; 10 and 30 mg/kg po,significantly reduced heart rate
same,duration of antihypertensive effects,[2]; acute oral administration,> 4 h
same,time to plateau of the antihypertensive response,[2]; po,3 to 4 h
same,peak decrease in mean blood pressure,"[3]; 30 mg/kg/d, day 3",−20 mmHg
same,peak antihypertensive response on day 1,"[3]; 100 mg/kg, 21 hr after dosing",−29 mmHg
same,blood pressure,[3]; 3 and 10 mg/kg/d for 30 days,no significant effects; also recorded: did not significantly affect blood pressure
same,persistence of blood pressure effect after a single dose,[3]; 30 and 100 mg/kg/d,24 h
same,blood pressure,[3]; 30 and 100 mg/kg/d for 30 days,significantly lowered blood pressure; also recorded: significantly reduced blood pressure
same,antihypertensive effect of mono-administration,[3]; enalapril 1 mg/kg or nepicastat 30 mg/kg (Series III),only a small antihypertensive effect
same,relation of deaths to treatment,[3]; four deaths in four series,appeared unrelated to the treatment of nepicastat
same,cardiac hypertrophy / left ventricular mass,[3]; nepicastat 3-100 mg/kg,did not affect the cardiac hypertrophy
"Fc1cc(F)cc(Cn2cc[nH]c2=S)c1 [SKF-102698, reference compound]",total activity counts and ambulations vs vehicle,[4],no significant differences; also recorded: no significant effects
